Drawing on US20240262807A1, “COMPOUND USED AS BCR-ABL INHIBITOR” (CHIA TAI TIANQING PHARMACEUTICAL GROUP CO., LTD., priority 2021, published 2024), this text covers IC50 and GI50 for two compounds.

One may read the IC50 as the midpoint of a concentration-inhibition curve.

Common to all, as to format: cell-based
For one assay, the system named is K562 cells. Nature of the assay: Inhibitory effect of compounds on proliferation of K562 cells (CCK-8). The conditions noted are these: Homo sapiens, 72 h with compound, CCK-8, 5% serum.
For assay [1], the target named is T1, Ba/F3-BCR-ABL1-T315I-C3 cells (Homo sapiens, UniProt P00519, T315I, cells depend on it).
T1 construct: fused on or other part: P11274 (Breakpoint cluster region protein)
Nature of the assay: Inhibitory effect of compounds on proliferation of BCR-ABL T315I-transfected Ba/F3 cells (CCK-8). The conditions noted are these: 72 h with compound, CCK-8, 5% serum, read-out: IC50 (nM) Ba/F3-BCR-ABL1 T315I. The procedure: Ba/F3-BCR-ABL1-T315I-C3 cells in logarithmic growth phase and good cell condition were added to a centrifuge tube and centrifuged at 1000 rpm for 5 min in a low speed centrifuge. The supernatant was discarded, and 5 mL of complete medium (RPMI 1640 basic medium+10% FBS) was added using a pipette for cell resuspension. The cells were counted using a cell counter, diluted with complete medium to a cell density of 6×10^4 cells/mL, and an equivalent amount of RPMI 1640 basic medium was added to adjust the serum concentration to 5% and the cell density to 3×10^4 cells/mL for plate seeding. The cells were seeded on a 96-well plate at 100 μL/well using a multi-channel pipette and cultured in a cell incubator at 37° C. 5% CO2 and saturated humidity. After 24 h incubation, compounds were loaded using a nanoliter pipettor, 8 concentrations (1000 nM, 250 nM, 63 nM, 16 nM, 3.9 nM, 0.98 nM, 0.24 nM, 0.061 nM) were set for each compound, and 2 replicate wells were set for each concentration; cells with no compounds added were taken as a negative control, and a plating medium with no cells added was taken as a blank control. After 72 h. […] Inhibition rate (%)=(mean value of negative control group−mean value of experimental group)/(mean value of negative control group−mean value of blank group)×100%. A dose-response curve was fitted by four-parameter analysis, with the logarithm of compound concentration serving as abscissa and inhibition rate serving as ordinate, such that ICso was calculated.

In another assay the target is T2, hERG potassium channel (Homo sapiens, UniProt Q12809).
T2 construct: expressed in transfected cells; host or cells: HEK-293 cells, stably transformed
Nature of the assay: Evaluation of cardiac safety: hERG potassium channel whole-cell patch clamp in HEK-293 cells. The conditions noted are these: HEK-293 cells over-expressing hERG potassium channel, tail current, room temperature. The procedure: The cell strains were derived from HEK-293 cells over-expressing hERG potassium channel. The cells were cultured in an incubator at 37° C. 5% CO2. […]
The stably-transformed cells were seeded onto a slide at a cell density of less than 50% and cultured overnight. […] Membrane currents were recorded by using a HEKA EPC-10 patch clamp amplifier and PATCHMASTER acquisition system (HEKA Instruments Inc., D-67466 Lambrecht. Pfalz. Germany) and analyzed and counted by using Origin 8.5 (OriginLab Corporation. Northampton. MA) software and Microsoft Excel (results in Table 4). […]
Channel currents were recorded in the experiments using a whole-cell recording mode. An extracellular fluid (approximately 2 mL per min) was firstly perfused, the process was continuously recorded, and the current was waited for stabilization (current decay (Run-Down) was less than 5% in 5 min); at this point, the tail current peak value was the control current value. Then, the extracellular fluid containing the test drug was perfused, and the process was continuously recorded until the inhibitory effect of the drug on the hERG current reached a stable state; at this point, the tail current peak value was the current value after dosing. […]

T2 sequence (Q12809 whole entry): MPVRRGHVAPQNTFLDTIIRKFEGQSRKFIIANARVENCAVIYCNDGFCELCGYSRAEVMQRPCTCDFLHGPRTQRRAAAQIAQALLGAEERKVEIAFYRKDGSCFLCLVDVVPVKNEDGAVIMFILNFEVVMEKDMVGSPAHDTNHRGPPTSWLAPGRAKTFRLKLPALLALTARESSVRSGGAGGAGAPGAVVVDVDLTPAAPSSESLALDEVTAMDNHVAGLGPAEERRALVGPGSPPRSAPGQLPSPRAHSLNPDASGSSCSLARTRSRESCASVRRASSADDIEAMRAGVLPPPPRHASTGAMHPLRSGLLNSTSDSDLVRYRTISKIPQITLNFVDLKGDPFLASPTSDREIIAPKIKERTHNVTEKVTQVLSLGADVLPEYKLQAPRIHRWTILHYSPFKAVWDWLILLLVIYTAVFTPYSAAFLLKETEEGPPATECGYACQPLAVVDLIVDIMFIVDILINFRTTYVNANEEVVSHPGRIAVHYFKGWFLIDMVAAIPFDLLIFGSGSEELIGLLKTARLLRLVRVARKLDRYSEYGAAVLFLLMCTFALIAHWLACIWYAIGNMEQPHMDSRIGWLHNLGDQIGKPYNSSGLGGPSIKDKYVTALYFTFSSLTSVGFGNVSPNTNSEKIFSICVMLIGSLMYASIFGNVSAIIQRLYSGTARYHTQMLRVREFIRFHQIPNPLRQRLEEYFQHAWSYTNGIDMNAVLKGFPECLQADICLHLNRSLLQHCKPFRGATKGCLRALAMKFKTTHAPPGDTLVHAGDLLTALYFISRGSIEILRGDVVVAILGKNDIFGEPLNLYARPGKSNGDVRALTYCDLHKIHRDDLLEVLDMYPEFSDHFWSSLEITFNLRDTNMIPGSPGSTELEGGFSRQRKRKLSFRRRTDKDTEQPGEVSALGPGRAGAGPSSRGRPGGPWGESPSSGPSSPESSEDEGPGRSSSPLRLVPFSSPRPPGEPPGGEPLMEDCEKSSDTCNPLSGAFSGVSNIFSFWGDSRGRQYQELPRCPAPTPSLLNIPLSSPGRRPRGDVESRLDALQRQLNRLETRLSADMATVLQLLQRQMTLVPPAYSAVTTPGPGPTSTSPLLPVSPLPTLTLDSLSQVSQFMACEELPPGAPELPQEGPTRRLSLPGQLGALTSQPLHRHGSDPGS

On to `O=C(Nc1ccc(OC(F)(F)Cl)cc1)c1cnc(N2CC(O)C2)c(-c2cc3c([nH]2)C(=O)NC3)c1` [Compound 104], for which the concentration for half-maximal inhibition (IC50) with K562 cells was 1.2 nM; against hERG potassium channel, > 30000 nM. Besides, the GI50 in assay [1] came to 0.86 nM.
The like results for `O=C(Nc1ccc(OC(F)(F)Cl)cc1)c1cnc(N2CC[C@@H](O)C2)c(-c2cc3c([nH]2)C(=O)NC3)c1` [Compound 106] were, in that order, 1.1 nM, > 30000 nM and 0.54 nM.
